Structures are written as SMILES. ≈ marks a conversion by molar mass, not a printed value.

`CCOCCOC(=O)C=Cc1ccc(OC)cc1` gave a solubility of 2 mM (≈ 500 µg/mL). This counts as millimolar.

Molecule `CCCCOC(=O)C=Cc1ccccc1` gave a solubility of 24.5 mM (≈ 5000 µg/mL).

For the molecule `O=NN(CCCl)C(=O)NCCCl`, the solubility (25 °C) was found to be 18.7 mM (≈ 4000 µg/mL).

For the setting “22 °C”, `CC(=O)NCc1c(I)c(NC(C)=O)c(I)c(C(=O)O)c1I` came in with a solubility of 4.78 mM (≈ 3000 µg/mL).

Under “25 °C”, `O=Nc1c(O)ccc2ccccc12` yielded a solubility of 5.77 mM (≈ 1000 µg/mL). In other words, the millimolar range.

With `OC[C@H]1O[C@@H](n2cnc3cncnc32)[C@H](O)[C@@H]1O`, the solubility stood at 396 mM (≈ 100000 µg/mL).

With `NCCNc1cccc2ccccc12`, the solubility (25 °C) was 10.7 mM (≈ 2000 µg/mL).

Regarding `C=C1C=CC(=O)O1`, the solubility amounted to 104 mM (≈ 10000 µg/mL).

The molecule `O=C(O)CCC(=O)OOC(=O)CCC(=O)O` came in with a solubility of 142 mM (≈ 33300 µg/mL).

Where the note is “25 °C”, `Nc1ccc(S(=O)(=O)Nc2ccnn2-c2ccccc2)cc1` showed a solubility of 4.77 mM (≈ 1500 µg/mL).

Molecule `O=C(NCN1CCOCC1)c1cnccn1` had a solubility of 1500 mM (≈ 333000 µg/mL).

Molecule `COc1cc(O)c(C(=O)c2ccccc2)cc1S(=O)(=O)O` displayed a solubility of 811 mM (≈ 250000 µg/mL).

The molecule `C#CC(C)(CC)OC(N)=O` (stereo not given) had a solubility of 113 mM (≈ 16000 µg/mL).

The molecule `CC(C)(C)CC(=O)OCC(=O)[C@@]12OC(C)(C)O[C@@H]1C[C@H]1[C@@H]3CCC4=CC(=O)C=C[C@]4(C)[C@@]3(F)[C@@H](O)C[C@@]12C` gave a solubility (25 °C) of 0.00751 mM (≈ 4 µg/mL).

For the setting “25 °C”, `O=C(N/N=C/c1ccccc1O)c1ccncc1` returned a solubility of 0.207 mM (≈ 50 µg/mL). This solubility is about 28-fold higher than that of the molecule before.

Usually solubility stands for the concentration that dissolves in the medium under given conditions.
